We go through 19 compounds from patent US10953027B2, “Active agents and methods of their use for the treatment of metabolic disorders and nonalcoholic fatty liver disease” (Flagship Pioneering Innovations V, Inc., priority 2018, dated 2021).

Molecules are shown by their SMILES.

Data set [1] in a line: Assay 1. Stability in Simulated Gastric Fluid (SGF). In kind it is in vitro ADME. To be noted: 1 μM, 37° C., SGF pH 1.6 with pepsin. As to the method: Assay 1. Stability of acylated active agents in Simulated Gastric Fluid (SGF). This assay was used to assess the stability of an acylated active agent in a stomach.
Medium was prepared by dissolving 2 g of sodium chloride in 0.6 L of ultrapure water (MilliQ®, Millipore Sigma, Darmstadt, Germany). The pH was adjusted to 1.6 with 1N hydrochloric acid, and the volume was then adjusted to 1 L with purified water.
60 mg FaSSIF powder (Biorelevant™, London, UK) were dissolved in 500 mL buffer (above). Pepsin was added (0.1 mg/mL) (Millipore Sigma, Darmstadt, Germany), and the solution was stirred. The resulting SGF media were used fresh for each experiment.
Test compounds were dissolved in DMSO stock to 1 mM. An aliquot of the DMSO stock solution was removed and diluted in the SGF Media in 15 mL falcon tubes to generate a compound concentration of 1 μM. A 1 mL aliquot was immediately removed and diluted once with 1 volume of acetonitrile for T0 timepoint. The mixture was sealed and mixed at 37° C. in an incubator. Aliquots (1 mL) were removed at regular intervals and immediately quenched by the addition of 1 volume of acetonitrile. The resulting samples were analyzed by LC/MS to determine degradation rates in SGF.

The nature of data set [2]: Assay 2. Stability in Simulated Intestinal Fluid (SIF). In kind it is in vitro ADME. To be noted: 1 μM, 37° C., SIF pH 6.7 with pancreatin. How it is done:
Assay 2. Stability of acylated active agents in Simulated Intestinal Fluid (SIF). This assay was used to assess the stability of an acylated active agent in a small intestine.
Phosphate buffer was prepared by dissolving 0.42 g of sodium hydroxide pellets and 3.95 g of monobasic sodium phosphate monohydrate and 6.19 g of sodium chloride in ultrapure water (MilliQ®, Millipore Sigma, Darmstadt, Germany). The pH was adjusted to 6.7 using aq. HCl and aq. NaOH, as necessary, and the solution was diluted with ultrapure water to produce 1 L of the pH 6.7 buffer.
112 mg FaSSIF powder (Biorelevant™, London, UK) was dissolved in 50 mL of the pH 6.7 buffer. 2 to 3 mL of the resulting solution were then added to 500 mg pancreatin (Millipore Sigma, Darmstadt, Germany). The resulting mixture was agitated by finger tapping the vessel containing the mixture until milky suspension formed. At this time, the remainder of the 50 mL FaSSiF/pH 6.7 buffer solution was added. The resulting suspension was flipped upside down 10 times to produce SIF, which was used fresh.
Test compounds were dissolved in DMSO stock to 1 mM. An aliquot of the DMSO stock solution was removed and diluted in the SIF media in 15 mL falcon tubes to produce a mixture with a tested compound concentration of 1 μM. A 1 mL aliquot was immediately removed and diluted once with 1 volume of acetonitrile for T0 timepoint. The mixture was sealed and agitated at 37° C. in an incubator. Aliquots (1 mL) were removed at regular intervals and immediately quenched by the addition of 1 volume of acetonitrile. The resulting samples were analyzed by LC/MS to determine degradation rates.

`Cc1c(C)c2c(c(C)c1OC(=O)C1OCC[C@@H](C)O1)CC[C@@](C)(CCC[C@H](C)CCC[C@H](C)CCCC(C)C)O2` (stereo partly drawn) [Compound 66, [(2R)-2,5,7,8-tetramethyl-2-[(4R,8R)-4,8,12-trimethyltridecyl]chroman-6-yl] (4R)-4-methyl-1,3-dioxane-2-carboxylate]: the “Assay 1 (SGF) (% Remaining @ 1 hours)” value in data set [1] is on record as “C (C: >75% of the tested compound remaining)”. Besides, the “Assay 2 (SIF) (% @ Remaining 4 hours)” value in data set [2] was “A (A: <25% of the tested compound remaining)”.

In the case of `CCC(=O)O[C@H]1[C@H](OC(=O)CC)[C@H](OC(=O)Cc2c[nH]c3ccccc23)O[C@@H](C)[C@H]1OC(=O)CC` [Compound 150, (2S,3S,4R,5R,6S)-2-{[2-(1H-indol-3-yl)acetyl]oxy}-6-methyl-4,5-bis(propanoyloxy)oxan-3-yl Propanoate], the “Assay 1 (SGF) (% Remaining @ 1 hours)” value in data set [1] is “C (C: >75% of the tested compound remaining)”. The “Assay 2 (SIF) (% @ Remaining 4 hours)” value in data set [2] is “A (A: <25% of the tested compound remaining)”.

With `CCC(=O)OC[C@H]1OC(O)[C@H](OC(=O)CC)[C@@H](OC(=O)CC)[C@@H]1OC(=O)CC` (stereo partly drawn) [Compound 142, [(2R,3R,4S,5R)-6-hydroxy-3,4,5-tris(propanoyloxy)oxan-2-yl]methyl Propanoate], the “Assay 1 (SGF) (% Remaining @ 1 hours)” value in data set [1] was “C (C: >75% of the tested compound remaining)”. In data set [2], the “Assay 2 (SIF) (% @ Remaining 4 hours)” value is “A (A: <25% of the tested compound remaining)”.

In the case of `CC(=O)Oc1ccc(-c2oc3cc(OC(C)=O)cc(OC(C)=O)c3c(=O)c2OC(C)=O)cc1` [Compound 20, [4-(3,5,7-triacetoxy-4-oxo-chromen-2-yl)phenyl] acetate], the “Assay 1 (SGF) (% Remaining @ 1 hours)” value in data set [1] is “C (C: >75% of the tested compound remaining)”. Further, the “Assay 2 (SIF) (% @ Remaining 4 hours)” value in data set [2] is given as “A (A: <25% of the tested compound remaining)”.

For the compound `CC(=O)Oc1cc(OC(C)=O)c2c(=O)c(OC(C)=O)c(-c3cc(OC(C)=O)c(OC(C)=O)c(OC(C)=O)c3)oc2c1` [Compound 23, [3,5-diacetoxy-4-oxo-2-(3,4,5-triacetoxyphenyl)chromen-7-yl] acetate], the “Assay 1 (SGF) (% Remaining @ 1 hours)” value in data set [1] is “C (C: >75% of the tested compound remaining)”. Also, the “Assay 2 (SIF) (% @ Remaining 4 hours)” value in data set [2] is reported as “A (A: <25% of the tested compound remaining)”.

`CCC(=O)O[C@@H]1[C@@H](OC(=O)CC)[C@@H](OC(=O)CC)CO[C@H]1O` [Compound 159, (3S,4S,5R,6R)-6-hydroxy-4,5-bis(propanoyloxy)oxan-3-yl Propanoate]: in data set [1], the “Assay 1 (SGF) (% Remaining @ 1 hours)” value is given as “C (C: >75% of the tested compound remaining)”. Moreover, the “Assay 2 (SIF) (% @ Remaining 4 hours)” value in data set [2] is on record as “B (B: 25-75% of the tested compound remaining)”.

For the compound `C[C@@H]1O[C@H](OC(=O)CCc2c[nH]c3ccccc23)[C@@H](OC(=O)CCc2c[nH]c3ccccc23)[C@H](OC(=O)CCc2c[nH]c3ccccc23)[C@@H]1OC(=O)CCc1c[nH]c2ccccc12` [Compound 103, (2R,3S,4R,5R,6S)-3,4,5-tris({[3-(1H-indol-3-yl)propanoyl]oxy})-6-methyloxan-2-yl 3-(1H-indol-3-yl)propanoate], in data set [1], the “Assay 1 (SGF) (% Remaining @ 1 hours)” value is given as “B (B: 25-75% of the tested compound remaining)”. In addition, the “Assay 2 (SIF) (% @ Remaining 4 hours)” value in data set [2] is reported as “A (A: <25% of the tested compound remaining)”.

With `CCCC(=O)Oc1ccc(N)cc1C(=O)O.Cl` [Compound 31, 5-amino-2-butanoyloxy-benzoic Acid Hydrochloride], the “Assay 1 (SGF) (% Remaining @ 1 hours)” value in data set [1] was “C (C: >75% of the tested compound remaining)”. In addition, in data set [2], the “Assay 2 (SIF) (% @ Remaining 4 hours)” value is on record as “C (C: >75% of the tested compound remaining)”.

Regarding `CCCC(=O)Oc1ccc(/C=C/c2cc(OC(=O)CCC)cc(OC(=O)CCC)c2)cc1` [Compound 1, [4-[(E)-2-[3,5-di(butanoyloxy)phenyl]vinyl]phenyl] butanoate], the “Assay 1 (SGF) (% Remaining @ 1 hours)” value in data set [1] is given as “C (C: >75% of the tested compound remaining)”. Moreover, the “Assay 2 (SIF) (% @ Remaining 4 hours)” value in data set [2] is “B (B: 25-75% of the tested compound remaining)”.

As for `CC(=O)Oc1ccc([C@@H]2CC(=O)c3c(OC(C)=O)cc(OC(C)=O)cc3O2)cc1` [Compound 21, (S)-2-(4-acetoxyphenyl)-4-oxochromane-5,7-diyl Diacetate], the “Assay 1 (SGF) (% Remaining @ 1 hours)” value in data set [1] is on record as “C (C: >75% of the tested compound remaining)”. In addition, in data set [2], the “Assay 2 (SIF) (% @ Remaining 4 hours)” value was “A (A: <25% of the tested compound remaining)”.

With `CC(=O)Oc1ccc(/C=C/c2cc(OC(C)=O)cc(OC(C)=O)c2)cc1` [Compound 18, [4-[(E)-2-(3,5-diacetoxyphenyl)vinyl]phenyl] acetate], the “Assay 1 (SGF) (% Remaining @ 1 hours)” value in data set [1] is recorded as “C (C: >75% of the tested compound remaining)”. Besides, the “Assay 2 (SIF) (% @ Remaining 4 hours)” value in data set [2] is recorded as “C (C: >75% of the tested compound remaining)”.

Take `CCC(=O)OC1O[C@@H](C)[C@@H](OC(=O)CC)[C@@H](OC(=O)CC)[C@@H]1OC(=O)CC` (stereo partly drawn) [Compound 157, (3S,4R,5R,6S)-6-methyl-3,4,5-tris(propanoyloxy)oxan-2-yl Propanoate]: the “Assay 1 (SGF) (% Remaining @ 1 hours)” value in data set [1] is “C (C: >75% of the tested compound remaining)”. In data set [2], the “Assay 2 (SIF) (% @ Remaining 4 hours)” value is on record as “A (A: <25% of the tested compound remaining)”.

As to `CCCC(=O)O[C@@H]1[C@@H](OC(=O)CCC)[C@@H](Oc2ccc(N)cc2C(=O)O)OC[C@H]1OC(=O)CCC` [Compound 33, 5-amino-2-[(2R,3R,4S,5R)-3,4,5-tri(butanoyloxy)tetrahydropyran-2-yl]oxy-benzoic Acid], the “Assay 1 (SGF) (% Remaining @ 1 hours)” value in data set [1] is recorded as “C (C: >75% of the tested compound remaining)”. In addition, the “Assay 2 (SIF) (% @ Remaining 4 hours)” value in data set [2] is on record as “C (C: >75% of the tested compound remaining)”.

Turning to `CCC(=O)Oc1ccc2c(c1)oc(=O)c1cc(OC(=O)CC)c(OC(=O)CC)cc12` [Compound 242, [6-oxo-8,9-di(propanoyloxy)benzo[c]chromen-3-yl] propanoate], the “Assay 1 (SGF) (% Remaining @ 1 hours)” value in data set [1] is “C (C: >75% of the tested compound remaining)”. Also, the “Assay 2 (SIF) (% @ Remaining 4 hours)” value in data set [2] is recorded as “A (A: <25% of the tested compound remaining)”.

`CCCC(=O)Nc1ccc(O)c(C(=O)O)c1` [Compound 40, 5-(butanoylamino)-2-hydroxy-benzoic Acid]: the “Assay 1 (SGF) (% Remaining @ 1 hours)” value in data set [1] is on record as “C (C: >75% of the tested compound remaining)”. Further, the “Assay 2 (SIF) (% @ Remaining 4 hours)” value in data set [2] was “C (C: >75% of the tested compound remaining)”.

Take `O=C(CCc1c[nH]c2ccccc12)O[C@@H]1[C@H](OC(=O)CCc2c[nH]c3ccccc23)C=C(C(=O)O)C[C@H]1OC(=O)CCc1c[nH]c2ccccc12` [Compound 253, (3R,4S,5R)-3,4,5-tris({[3-(1H-indol-3-yl)propanoyl]oxy})cyclohex-1-ene-1-carboxylic Acid]: the “Assay 1 (SGF) (% Remaining @ 1 hours)” value in data set [1] is “B (B: 25-75% of the tested compound remaining)”. The “Assay 2 (SIF) (% @ Remaining 4 hours)” value in data set [2] is “B (B: 25-75% of the tested compound remaining)”.

For `CCC(=O)OCC[C@@H](C)OC(=O)Oc1ccc(/C=C/c2cc(OC(=O)O[C@H](C)CCOC(=O)CC)cc(OC(=O)O[C@H](C)CCOC(=O)CC)c2)cc1` [Compound 76, (3R,3′R)-((((5-((E)-4-(((((R)-4-(propionyloxy)butan-2-yl)oxy)carbonyl)oxy)styryl)-1,3-phenylene)bis(oxy))bis(carbonyl))bis(oxy))bis(butane-3,1-diyl) dipropionate], in data set [1], the “Assay 1 (SGF) (% Remaining @ 1 hours)” value was “B (B: 25-75% of the tested compound remaining)”. The “Assay 2 (SIF) (% @ Remaining 4 hours)” value in data set [2] is given as “A (A: <25% of the tested compound remaining)”.

With `CCC(=O)O[C@@H]1[C@H](OC(=O)CC)[C@H](C)OC(O)[C@H]1OC(=O)CC` (stereo partly drawn) [Compound 156, (3S,4R,5R,6S)-2-hydroxy-6-methyl-4,5-bis(propanoyloxy)oxan-3-yl Propanoate], in data set [1], the “Assay 1 (SGF) (% Remaining @ 1 hours)” value is “C (C: >75% of the tested compound remaining)”. In addition, the “Assay 2 (SIF) (% @ Remaining 4 hours)” value in data set [2] was “A (A: <25% of the tested compound remaining)”.

Consider `CCC(=O)O[C@H](C)CCOC(=O)Oc1ccc(/C=C/c2cc(OC(=O)OCC[C@@H](C)OC(=O)CC)cc(OC(=O)OCC[C@@H](C)OC(=O)CC)c2)cc1` [Compound 77, (2R,2′R)-((((5-((E)-4-((((R)-3-(propionyloxy)butoxy)carbonyl)oxy)styryl)-1,3-phenylene)bis(oxy))bis(carbonyl))bis(oxy))bis(butane-4,2-diyl) dipropionate], for which the “Assay 1 (SGF) (% Remaining @ 1 hours)” value in data set [1] is given as “B (B: 25-75% of the tested compound remaining)”. In addition, the “Assay 2 (SIF) (% @ Remaining 4 hours)” value in data set [2] is recorded as “A (A: <25% of the tested compound remaining)”.
